Test results from patent US11053226B2, “KRAS G12C inhibitors and methods of using the same” (Amgen Inc., priority 2018, dated 2021).
Where two headings read alike, the source gives them in different places.

How the values were obtained:
[1] = target: GDP-bound KRAS protein (aa 1-169), containing both G12C and C118A amino acid substitutions (Homo sapiens (Human), UniProt P01116, C118A/G12C); test: Coupled Nucleotide Exchange Assay; assay type: biochemical; conditions: read-out: Coupled Exchange IC50 (2 h); 2 h compound pre-incubation
Description: (§1) For compounds in Table 9, the following assay conditions were employed:
Coupled Nucleotide Exchange Assay:
The assay plates were then read on a PerkinElmer EnVision Multilabel Reader, using AlphaScreen® technology, and data were analyzed using a 4-parameter logistic model to calculate IC50 values.

[2] = test system: Phosphorylation of ERK1/2 in MIA PaCa-2 cells; test: Phospho-ERK1/2 MSD Assay; assay type: cell-based; conditions: MiaPaCa-2 cells
Description: as §1
Phospho-ERK1/2 MSD Assay:
Sixteen hours prior to compound treatment, MIA PaCa-2 cells were seeded in 96-well cell culture plates at a density of 25,000 cells/well and incubated at 37° C., 5% CO2. […] Following compound treatment, cells were stimulated with 10 ng/mL EGF (Roche 11376454001) for 10 min, washed with ice-cold Dulbecco's phosphate-buffered saline, no Ca^2+ or Mg^2+ (ThermoFisher Scientific 14190144), and then lysed in RIPA buffer (50 mM Tris-HCl pH 7.5, 1% Igepal, 0.5% sodium deoxycholate, 150 mM NaCl, and 0.5% sodium dodecyl sulfate) containing protease inhibitors (Roche 4693132001) and phosphatase inhibitors (Roche 4906837001). […] Assay plates were read on a Meso Scale Discovery Sector Imager 6000, and data were analyzed using a 4-parameter logistic model to calculate IC50 values.

[3] = test system: Phosphorylation of ERK1/2 in A549 cells; test: Phospho-ERK1/2 MSD Assay (A549); assay type: cell-based; conditions: read-out: pERK IC50 (4 h, A549), 4 h compound treatment
[4] = Homo sapiens, MIA PaCa-2, 4 h, read-out: pERK IC50 (4 h, MiaPaCa-2), 4 h compound treatment

GDP-bound KRAS protein (aa 1-169), containing both G12C and C118A amino acid substitutions, sequence (P01116 other isoform, or with tags, fused parts or gaps G12C/C118A): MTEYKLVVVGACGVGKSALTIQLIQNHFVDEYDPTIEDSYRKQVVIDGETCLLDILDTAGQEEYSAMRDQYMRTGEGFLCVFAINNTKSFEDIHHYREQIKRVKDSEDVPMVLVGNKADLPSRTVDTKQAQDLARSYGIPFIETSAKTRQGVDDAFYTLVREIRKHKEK

C=CC(=O)N1CC(NC(=O)Cn2c(C)c(C(=O)N3CCc4ccccc4C3(C)C)c3cc(Br)cc(C)c32)C1 [Example 35]
IC50 [1]: 0.29 µM
IC50 [2, 4]: 3.06 µM
IC50 ([3]; Homo sapiens, A549, 4 h): 55.7 µM

C=CC(=O)N1CC(NC(=O)Cn2cc(C(=O)N3CC4(CCN4c4ccccn4)C3)c3cc(Br)ccc32)C1 [Example 148]
IC50 [2, 4]: 50.2 µM
IC50 ([3]; Homo sapiens, A549, 4 h): > 100 µM

C=CC(=O)N1CC(NC(=O)Cn2cc(C(=O)NCCOc3c(C)cccc3C)c3cc(Br)ccc32)C1 [Example 68]
IC50 [2, 4]: 8.81 µM
IC50 ([3]; Homo sapiens, A549, 4 h): > 100 µM

C=CC(=O)N1CC(NC(=O)Cn2cc(C(=O)NCCc3nc4c(s3)CCCC4)c3cc(Br)ccc32)C1 [Example 171]
IC50 [2, 4]: > 100 µM
IC50 ([3]; Homo sapiens, A549, 4 h): > 100 µM

C=CC(=O)N1CC(NC(=O)Cn2cc(C(=O)N3CCc4c(ccnc4OC)C3)c3cc(Br)ccc32)C1 [Example 89]
IC50 [2, 4]: 14.9 µM
IC50 ([3]; Homo sapiens, A549, 4 h): > 100 µM

C=CC(=O)N1CC(N2CC[C@@H](n3c(C)c(C(=O)N4CCc5c(cccc5OC)C4)c4cc(Br)ccc43)C2=O)C1 [Example 50]
IC50 [2, 4]: 4.81 µM
IC50 ([3]; Homo sapiens, A549, 4 h): > 33.3 µM

C=CC(=O)N1CC(NC(=O)Cn2cc(C(=O)N3CCc4c(OC)ccc(Br)c4C3)c3cc(Br)ccc32)C1 [Example 157]
IC50 [2, 4]: 53.6 µM
IC50 ([3]; Homo sapiens, A549, 4 h): 42.5 µM

C=CC(=O)N1CC(NC(=O)Cn2c(C)c(C(=O)N3CCN(c4ccc([N+](=O)[O-])cn4)CC3)c3cc(Br)ccc32)C1 [Example 46]
IC50 [2, 4]: 4.08 µM
IC50 ([3]; Homo sapiens, A549, 4 h): > 100 µM

C=CC(=O)N1CC(NC(=O)Cn2c(C)c(C(=O)NCCC(=O)Nc3ccccc3CC)c3cc(Br)ccc32)C1 [Example 179]
IC50 [2, 4]: > 100 µM
IC50 ([3]; Homo sapiens, A549, 4 h): > 100 µM

C=CC(=O)N1CC(NC(=O)Cn2cc(C(=O)NCCC(=O)Nc3cc(C)ccc3C)c3cc(Br)ccc32)C1 [Example 169]
IC50 [2, 4]: > 100 µM
IC50 ([3]; Homo sapiens, A549, 4 h): > 100 µM

C=CC(=O)N1CC(N2CCC(n3c(C)c(C(=O)N4CCc5c(cccc5OC)C4)c4cc(Br)ccc43)C2=O)C1 (stereo not shown) [Example 42]
IC50 [2, 4]: 3.78 µM
IC50 ([3]; Homo sapiens, A549, 4 h): > 33.3 µM

C=CC(=O)N1CC(NC(=O)Cn2cc(C(=O)N3CCN(c4ccc(C)cn4)CC3)c3cc(Br)ccc32)C1 [Example 45]
IC50 [2, 4]: 3.96 µM
IC50 ([3]; Homo sapiens, A549, 4 h): > 100 µM

C=CC(=O)N1CC(C)(NC(=O)Cn2c(C)c(C(=O)N3CCc4c(cccc4OC)C3)c3cc(Br)ccc32)C1 [Example 77]
IC50 [2, 4]: 11.6 µM
IC50 ([3]; Homo sapiens, A549, 4 h): 10.2 µM

C=CC(=O)N1CC(NC(=O)Cn2c(C)c(C(=O)C3CCc4ccccc4C3)c3cc(Br)ccc32)C1 (stereo not shown) [Example 65]
IC50 [2, 4]: 7.99 µM
IC50 ([3]; Homo sapiens, A549, 4 h): 3.47 µM

C=CC(=O)N1CC(NC(=O)Cn2cc(C(=O)N3CCc4cc(Br)ccc4C3)c3cc(Br)ccc32)C1 [Example 106]
IC50 ([2]; read-out: pERK IC50 (4 h, MiaPaCa-2), 4 h compound treatment): 22.2 µM
IC50 [3]: 44.7 µM

C=CC(=O)N1CC(NC(=O)Cn2cc(C(=O)N3CCO[C@H](c4ccccc4)C3)c3cc(Br)ccc32)C1 [Example 103]
IC50 [2, 4]: 21.6 µM
IC50 ([3]; Homo sapiens, A549, 4 h): > 100 µM

C=CC(=O)N1CC(NC(=O)Cn2c(C)c(C(=O)N3CCN(c4ccc(C(F)(F)F)cn4)CC3)c3cc(Br)ccc32)C1 [Example 40]
IC50 [2, 4]: 3.42 µM
IC50 ([3]; Homo sapiens, A549, 4 h): 44.6 µM

C=CC(=O)N1CC(NC(=O)Cn2cc(C(=O)NCCC(=O)Nc3ccccc3CC)c3cc(Br)ccc32)C1 [Example 167]
IC50 [2, 4]: > 100 µM
IC50 ([3]; Homo sapiens, A549, 4 h): > 100 µM

C=CC(=O)N1CC(NC(=O)Cn2cc(C(=O)N3CCOC(c4ccccc4)C3)c3cc(Br)ccc32)C1 (stereo not shown) [Example 138]
IC50 [2, 4]: 40.5 µM
IC50 ([3]; Homo sapiens, A549, 4 h): > 100 µM

C=CC(=O)N1CC(NC(=O)Cn2cc(C(=O)N3CCN(c4ncccc4C)CC3)c3cc(Br)ccc32)C1 [Example 61]
IC50 [2, 4]: 7.06 µM
IC50 ([3]; Homo sapiens, A549, 4 h): > 33.3 µM

C=CC(=O)N1CC(NC(=O)Cn2c(C)c(C(=O)N3CCN(c4ccc(C#N)cn4)CC3)c3cc(Br)ccc32)C1 [Example 83]
IC50 [2, 4]: 13.6 µM
IC50 ([3]; Homo sapiens, A549, 4 h): > 100 µM

C=CC(=O)N1CC(NC(=O)Cn2c(C)c(C(=O)N3CCN(c4ccc(C#N)cn4)C[C@H]3C)c3cc(Br)ccc32)C1 [Example 16]
IC50 [2, 4]: 1.79 µM
IC50 ([3]; Homo sapiens, A549, 4 h): > 100 µM

C=CC(=O)N1CC(NC(=O)Cn2cc(C(=O)N3CCN(c4cccc(C)n4)CC3)c3cc(Br)ccc32)C1 [Example 48]
IC50 [2, 4]: 4.56 µM
IC50 ([3]; Homo sapiens, A549, 4 h): > 33.3 µM

C=CC(=O)N1CC(NC(=O)Cn2cc(C(=O)OC)c3cc(Br)ccc32)C1 [Example 108]
IC50 [2, 4]: 23.5 µM
IC50 ([3]; Homo sapiens, A549, 4 h): > 100 µM
